Source: ChEMBL document CHEMBL1201862, “PubChem BioAssay data set” (2004)
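Values below derive from 48-hour exposures of cells grown in 96-well plates, with endpoints linearly interpolated between the two concentrations bracketing the appropriate inhibition level. At the GI50, growth is halved.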 Calls of active or inactive are those of the source. Rule as the data show it: active = GI50 up to about 1.1 µM and inactive = higher.

Assays:
Experiment in all cases: growth of human tumour cells (NCI), 48 h
HCC 2998 = tested on: HCC 2998
HCT-116 = tested on: HCT-116
HOP-62 = tested on: HOP-62
HT-29 = tested on: HT-29
M14 = tested on: M14
MDA-MB-231 = tested on: MDA-MB-231
MDA-N = tested on: MDA-N
NCI-H23 = tested on: NCI-H23
NCI-H460 = tested on: NCI-H460
NCI-H522 = tested on: NCI-H522
OVCAR-8 = tested on: OVCAR-8
PC-3 = tested on: PC-3
SF-539 = tested on: SF-539
SN12C = tested on: SN12C
SR = tested on: SR
TK-10 = tested on: TK-10
UACC-62 = tested on: UACC-62
UO-31 = tested on: UO-31
EKVX = tested on: EKVX

Measured: GI50

COC(C/C(=C/CO[Si](C(C)C)(C(C)C)C(C)C)C(=O)Nc1ccccc1I)OC
inactive: HCC 2998 16.4 µM | HCT-116 8.97 µM | HOP-62 38.2 µM | HT-29 29.6 µM | M14 29.9 µM | MDA-MB-231 12.5 µM | MDA-N 23.2 µM | NCI-H23 32.9 µM | NCI-H460 25.5 µM | NCI-H522 1.53 µM | OVCAR-8 33 µM | PC-3 18.9 µM | SF-539 19.8 µM | SN12C 26.9 µM | SR 7.5 µM | TK-10 63.8 µM | UACC-62 53.5 µM | UO-31 36.6 µM

C=CCc1cccc2cc(C(=O)NC3CCCCC3)c(=N)oc12
inactive: EKVX > 100 µM | HCC 2998 16.3 µM | HCT-116 13.9 µM | HOP-62 18.9 µM | HT-29 27.2 µM | M14 18 µM | MDA-MB-231 16 µM | MDA-N 19.1 µM | NCI-H23 19.9 µM | NCI-H460 16.1 µM | NCI-H522 > 100 µM | OVCAR-8 32.6 µM | PC-3 16.1 µM | SN12C 14.9 µM | SR 63.8 µM | UACC-62 16.3 µM

O=C(NC(=S)Nc1ccc(Br)cc1)c1ccc2c(c1)Sc1ccccc1S2
inactive: HCT-116 23.2 µM | HOP-62 16.1 µM | HT-29 33.6 µM | M14 12.4 µM | MDA-MB-231 17.6 µM | MDA-N 28.9 µM | NCI-H23 21.5 µM | NCI-H460 17.9 µM | NCI-H522 23.1 µM | OVCAR-8 17.3 µM | PC-3 47.8 µM | SF-539 24.3 µM | SN12C 18.8 µM | SR 17.3 µM | TK-10 16.9 µM | UACC-62 27.5 µM | UO-31 12.9 µM

CC(=O)N(CC(=O)C(=O)NNc1ccoc1)c1ccc(Cl)cc1
inactive: EKVX > 100 µM | HCC 2998 > 100 µM | HCT-116 > 100 µM | HOP-62 > 100 µM | HT-29 > 100 µM | M14 > 100 µM | MDA-MB-231 > 100 µM | MDA-N > 100 µM | NCI-H23 > 100 µM | NCI-H460 > 100 µM | NCI-H522 > 100 µM | OVCAR-8 > 100 µM | PC-3 > 100 µM | SF-539 > 100 µM | SN12C > 100 µM | SR 79.4 µM | TK-10 > 100 µM | UO-31 77.1 µM

C=C(C)[C@@H]1CCC2=C(CC[C@]3(C)[C@@H]([C@@H](CCC=C(C)C)C(=O)O)[C@H](O)C[C@@]23C)[C@@]1(C)CCC(=O)O [PORICOIC ACID G]
inactive: EKVX 44.6 µM | HCT-116 54.1 µM | HOP-62 53.2 µM | HT-29 47.4 µM | M14 99.8 µM | MDA-MB-231 > 100 µM | MDA-N 86.3 µM | NCI-H23 87.3 µM | NCI-H460 46.8 µM | NCI-H522 44.2 µM | OVCAR-8 > 100 µM | PC-3 45.6 µM | SF-539 59.3 µM | SN12C 52.4 µM | SR 29.4 µM | TK-10 > 100 µM | UO-31 > 100 µM

COc1ccc(/C=C2/C(C)=NN(c3cccc(Cl)c3)/C2=N/c2nc3ccccc3s2)cc1
inactive: EKVX 40.2 µM | HCC 2998 18.3 µM | HCT-116 19.2 µM | HOP-62 20 µM | HT-29 19.5 µM | M14 25.1 µM | MDA-MB-231 24.7 µM | MDA-N 21.7 µM | NCI-H23 16.9 µM | NCI-H460 20.4 µM | NCI-H522 19.1 µM | OVCAR-8 22.6 µM | PC-3 19 µM | SF-539 26.7 µM | SR 23.9 µM | TK-10 29 µM | UO-31 19.3 µM

Cc1nn(-c2ccccc2)c(C)c1/C=N/NC(=O)c1sc(=S)n(-c2ccc(Cl)cc2)c1N
inactive: EKVX 3.55 µM | HCC 2998 18.8 µM | HCT-116 7.74 µM | HOP-62 6.44 µM | HT-29 5.05 µM | M14 5.24 µM | MDA-MB-231 5.02 µM | MDA-N 11.5 µM | NCI-H23 18.9 µM | NCI-H460 4.83 µM | OVCAR-8 32.3 µM | PC-3 4.07 µM | SF-539 3.64 µM | SN12C 12.2 µM | SR 3.73 µM | TK-10 1.87 µM | UACC-62 5.98 µM | UO-31 4.33 µM

CCN(CC)CCNC(=O)c1ccc(I)cc1
inactive: EKVX > 100 µM | HCC 2998 > 100 µM | HCT-116 > 100 µM | HOP-62 > 100 µM | HT-29 33.3 µM | M14 > 100 µM | MDA-MB-231 > 100 µM | MDA-N > 100 µM | NCI-H23 > 100 µM | NCI-H460 > 100 µM | NCI-H522 > 100 µM | OVCAR-8 > 100 µM | PC-3 > 100 µM | SF-539 > 100 µM | SN12C > 100 µM | SR > 100 µM | TK-10 > 100 µM | UO-31 > 100 µM

COc1ccc2c(c1)CCC1=C/C(=N\NC(N)=O)CCC12C (stereo not given)
inactive: HCC 2998 > 10 µM | HCT-116 > 10 µM | HOP-62 > 10 µM | HT-29 > 10 µM | M14 > 10 µM | MDA-MB-231 > 10 µM | MDA-N > 10 µM | NCI-H23 > 10 µM | NCI-H522 > 10 µM | OVCAR-8 > 10 µM | PC-3 > 10 µM | SF-539 > 10 µM | SN12C > 10 µM | SR > 10 µM | TK-10 > 10 µM | UACC-62 6.41 µM

O=C(/N=N/c1ccccc1Cl)NNc1ccccc1Cl
inactive: HCC 2998 27.1 µM | HCT-116 20.5 µM | HOP-62 9.48 µM | HT-29 93.8 µM | M14 56.8 µM | MDA-MB-231 54.3 µM | MDA-N 36.5 µM | NCI-H23 50 µM | NCI-H460 65 µM | NCI-H522 23.6 µM | OVCAR-8 27.6 µM | PC-3 30 µM | SN12C 61.7 µM | SR 27.5 µM | TK-10 50.9 µM | UACC-62 43.4 µM | UO-31 21.8 µM

CN(C)Cc1cc(C(=O)/C=C/c2ccc(Br)cc2)cc(CN(C)C)c1O
inactive: EKVX 13.2 µM | HCC 2998 13.7 µM | HCT-116 6.14 µM | HOP-62 4.33 µM | HT-29 3.2 µM | M14 4.79 µM | MDA-MB-231 3.21 µM | MDA-N 2.22 µM | NCI-H23 15.7 µM | NCI-H460 7.16 µM | NCI-H522 3.93 µM | OVCAR-8 4.03 µM | PC-3 1.67 µM | SF-539 14.3 µM | SN12C 2.84 µM | SR 5.85 µM | TK-10 13 µM | UO-31 1.82 µM
